Broadly, the IC50 is the concentration that gives 50% inhibition.

Common to all, as to assay: CellTiter-Glo cell viability, IC50 determination
Type in all cases: cell-based
In general terms: ATP-based viability assays read luminescence as a measure of living cells.

The test system of test [1] is Calu6. The settings on record: Homo sapiens, Calu-6, 72 h; Calu6 cell line; 3-day CTG assay; read-out: Absolute IC50. As for the experimental part:
(§1) All the cells will be cultured in the media supplemented with 10% FBS except for which are marked specially, in the temperature of 37° C., 5% CO2 and 95% humidity.
(§2) Cell viability is assayed by using CellTiter-Glo® Luminescent Cell Viability Assay Kit (Cat. No.: G7572, Promega. Store at −20° C.). To prepare the CellTiter_Glo Reagent, the CellTiter-Glo Buffer was thawed and equilibrated to room temperature prior to use. For convenience the CellTiter-Glo Buffer may be thawed and stored at room temperature for up to 48 hours prior to use. The lyophilized CellTiter-Glo Substrate is equilibrated to room temperature prior to use. The appropriate volume (100 ml) of CellTiter-Glo Buffer is transferred into the amber bottle containing CellTiter-Glo Substrate to reconstitute the lyophilized enzyme/substrate mixture, which forms the CellTiter-Glo Reagent. In certain cases, the entire liquid volume of the CellTiter-Glo Buffer bottle may be added to the CellTiter-Glo Substrate vial. Mix by gently vortexing, swirling or by inverting the contents to obtain a homogeneous solution. The CellTiter-Glo Substrate should go into solution easily in less than one minute.
(§3) The day before the experiment (Day −1), cells were dissociated during the logarithmic growth period with Cell Disassociation Buffer (Gibco 13151-014) and mixed with appropriate cell media and centrifuge at 1000 rpm for 3 minutes. The cells were re-suspended and counted using Countstar before adjusting cell concentrations to optimized density (i.e. 4.44×10^4 cells/ml) with respective culture medium listed in Table 1 for 3-day CTG assay (The cell density was optimized before actual study; cell density used in the test may vary for different cell lines). 90 μl cell suspensions were added to two 96-well plates (plates A and B) with the final cell density of 4×10^3 cells/well for 3-day CTG assay (the cell density was optimized before actual study; cell density used in the test may vary for different cell lines). The plate A and B group were incubated for overnight in humidified incubator at 37° C. with 5% CO2.
(§4) On Day 0, for plate A group, 10 μl culture medium was added to each well for T0 reading. CellTiter-Glo® Reagent was added at equal volume of cell culture medium present in each well (e.g., add 100 μl of reagent to 100 μl of medium containing cells for a 96-well plate). Contents were mixed for 2 minutes on an orbital shaker to facilitate cell lysis. The plate was allowed to incubate at room temperature for 10 minutes to stabilize luminescent signal. Backseal black sticker was added to the bottom of each plate. Luminescence was recorded using EnVision Multi Label Reader. This formed the basis for T0 value.
(§5) On Day 0, the test articles and positive controls were dissolved at the concentration indicated at Test Article Dilution map. 100× solution in PBS was prepared and then diluted with appropriate culture media (1:10) into 10×working solutions. 10 μl (10×) drug solutions were dispensed in each well (triplicate for each drug concentration) of the plate B group according to plate inoculation map. The test plates were incubated for […] in the humidified incubator at 37° with 5% CO2.
(§6) On Day 3, CellTiter-Glo® Reagent was added at equal volume of cell culture medium present in each well (e.g., add 100 μl of reagent to 100 μl of medium containing cells for a 96-well plate). Contents were mixed for 2 minutes on an orbital shaker to induce cell lysis. The plate was allowed to incubate at room temperature for 10 minutes to stabilize luminescent signal. Backseal black sticker was placed to the bottom of each plate. Luminescence was recorded using EnVision Multi Label Reader.
(§7) In order to calculate IC50s, a dose-response curve was fitted using a nonlinear regression model with a sigmoidal dose response. The formula for calculating surviving rate was shown below; Absolute IC50 is calculated where Y axis set at 50% using GraphPad Prism 5.0. Software. […]

For test [2], the system named is Colo205. As to conditions: Homo sapiens, COLO 205, 72 h; Colo205 cell line; 3-day CTG assay; read-out: Absolute IC50. The procedure: as §1, §2, §3, §4, §5, §6, §7
For test [3], the system named is HCT-15. The settings on record: Homo sapiens, 72 h; HCT-15 cell line; 3-day CTG assay; read-out: Absolute IC50. The procedure: as §1, §2, §3, §4, §5, §6, §7
In test [4] the test system is HT1376. As to conditions: Homo sapiens, HT-1376, 72 h; HT1376 cell line; 3-day CTG assay; read-out: Absolute IC50. As for the experimental part: as §1, §2, §3, §4, §5, §6, §7
For test [5], the system named is HepG2. As to conditions: Homo sapiens, 72 h; HepG2 cell line; 3-day CTG assay; read-out: Absolute IC50. The procedure:
as §1, §2, §3, §4, §5, §6, §7

Test [6] concerns LoVo. The settings on record: Homo sapiens, 72 h; LoVo cell line; 3-day CTG assay; read-out: Absolute IC50. As for the experimental part: as §1, §2, §3, §4, §5, §6, §7
Test [7] deals with NCI-H1651. The settings on record: Homo sapiens, 72 h; NCI-H1651 cell line; 3-day CTG assay; read-out: Absolute IC50. As for the experimental part: as §1, §2, §3, §4, §5, §6, §7
Test [8] relates to NCI-H2227. As to conditions: 72 h; NCI-H2227 cell line; 3-day CTG assay; read-out: Absolute IC50. The procedure: as §1, §2, §3, §4, §5, §6, §7
Test [9] relates to NCI-H460. As to conditions: Homo sapiens, 72 h; NCI-H460 cell line; 3-day CTG assay; read-out: Absolute IC50. As for the experimental part: as §1, §2, §3, §4, §5, §6, §7
The test system of test [10] is PC-3. As to conditions: Homo sapiens, 72 h; PC-3 cell line; 3-day CTG assay; read-out: Absolute IC50. The procedure: as §1, §2, §3, §4, §5, §6, §7
Test [11] has as its system RKO. The settings on record: Homo sapiens, 72 h; RKO cell line; 3-day CTG assay; read-out: Absolute IC50. As for the experimental part: as §1, §2, §3, §4, §5, §6, §7
The subject of test [12] is Sk-Mel-5. The settings on record: Homo sapiens, 72 h; Sk-Mel-5 cell line; 3-day CTG assay; read-out: Absolute IC50. The procedure:
as §1, §2, §3, §4, §5, §6, §7

In test [13] the test system is A2058. As to conditions: Homo sapiens, 72 h; A2058 cell line; 3-day CTG assay; read-out: Absolute IC50. The procedure: as §1, §2, §3, §4, §5, §6, §7
For test [14], the system named is NCI-H1299. As to conditions: Homo sapiens, 72 h; NCI-H1299 cell line; 3-day CTG assay; read-out: Absolute IC50. The procedure: as §1, §2, §3, §4, §5, §6, §7
Test [15] deals with NCI-H1703. As to conditions: Homo sapiens, 72 h; NCI-H1703 cell line; 3-day CTG assay; read-out: Absolute IC50. As for the experimental part:
as §1, §2, §3, §4, §5, §6, §7

The subject of test [16] is NCI-H441. The settings on record: Homo sapiens, 72 h; NCI-H441 cell line; 3-day CTG assay; read-out: Absolute IC50. The procedure: as §1, §2, §3, §4, §5, §6, §7

Regarding `O=C(Nc1ccc2[nH]nc(-c3ccncc3)c2c1)[C@@H]1CCN(CC(=O)N2CCN(c3ccc(-c4ncccn4)cc3)CC2)C1` [SCH772984, (R)-1-(2-oxo-2-(4-(4-(pyrimidin-2-yl)phenyl)piperazin-1-yl)ethyl)-N-(3-(pyridin-4-yl)-1H-indazol-5-yl)pyrrolidine-3-carboxamide], the IC50 in test [1] amounted to 0.56 µM; in test [2], 0.04 µM; in test [3], 15.6 µM; in test [4], 4.27 µM; in test [5], 0.13 µM; in test [6], 0.41 µM. Besides, the IC50 in test [7] amounted to 48.8 µM; in test [8] it was 28.7 µM; in test [9] it was 5.53 µM; in test [10], 14.3 µM; in test [11], 17.5 µM; in test [12], 0.2 µM.

On to `CC(=O)Nc1cccc(-n2c(=O)n(C3CC3)c(=O)c3c(Nc4ccc(I)cc4F)n(C)c(=O)c(C)c32)c1` [Trametinib, N-(3-{3-Cyclopropyl-5-[(2-fluoro-4-iodophenyl)amino]-6,8-dimethyl-2,4,7-trioxo-3,4,6,7-tetrahydropyrido[4,3-d]pyrimidin-1(2H)-yl}phenyl)acetamide], for which the half-inhibitory concentration (IC50) in [13] was 0.12 µM; in [1], 0.14 µM; in [3], 29.3 µM; in [6], 0.11 µM; in [14], 0.91 µM; in [15] it was 15 µM. Further, the concentration for half-maximal inhibition (IC50) in [16] is 325 µM; in [11], 6.7 µM; in test [12], 0.01 µM.

For the origin of these results see US10501805B2, “Methods for determining responsiveness to MEK/ERK inhibitors” (CROWN BIOSCIENCE, INC. (TAICANG), priority 2014, dated 2019).
